Results on four molecules are retold here after patent US20130040898A1, “METHODS OF TREATMENT OF PATIENTS AT INCREASED RISK OF DEVELOPMENT OF ISCHEMIC EVENTS AND COMPOUNDS HEREOF” (priority 2010, published 2013).

The conditions of data set [1]: depends on administration form and/or dosage; cited from earlier work.
In data set [2] the test system is platelet aggregation in whole blood. As to the kind of experiment: Platelet aggregation in whole blood evaluated by Multiplate. Type of data set: cell-based. An excerpt: FIG. 2: MultiPlate continuously records platelet aggregation. The increase of impedance by the attachment of platelets onto the Multiplate sensors is transformed to arbitrary aggregation units (AU) and plotted against time. […] Hereby, the effect on the endothelium of PGI2 can be employed in conjunction with treatment with antithrombotic agents such as Aspirin (ASA), platelet ADP—and a platelet inhibitor, such as GPIIb/IIIa receptor antagonists without increased risk of bleeding in this high-risk population. The term “Mulitplate” refers to an applied platelet aggregometer/platelet function analyzer utilizing the analysis of whole blood. Whole blood is the physiological environment where platelet function takes place in vivo, and the use of whole blood for in-vitro testing eliminates the need for time-consuming centrifugation steps required for Born aggregation measurements. The use of a small amount of whole blood (0.3 ml per test) allows the differentiated assessment of platelet function without drawing large amounts of blood (as required for analysis of Born aggregation) and facilitates the analysis of blood from children and also in experimental settings.

A further data set concerns thrombus formation. Briefly: Thrombus formation evaluated by viscoelastical haemostatic assay, thrombelastography (TEG). Type of data set: cell-based. The source says:
FIG. 1: Recording haemostatic activity using TEG assay. […] Hereby, the effect on the endothelium of PGI2 can be employed in conjunction with treatment with antithrombotic agents such as Aspirin (ASA), platelet ADP—and a platelet inhibitor, such as GPIIb/IIIa receptor antagonists without increased risk of bleeding in this high-risk population.

On to `CSCCNc1nc(SCCC(F)(F)F)nc2c1ncn2[C@@H]1O[C@H](COP(=O)(O)OP(=O)(O)C(Cl)(Cl)P(=O)(O)O)[C@@H](O)[C@H]1O` [cangrelor], for which the half time in data set [1] was 3 to 5 min.

With `CC#CCC(C)[C@H](O)/C=C/[C@@H]1[C@H]2C/C(=C/CCCC(=O)O)C[C@H]2C[C@H]1O` (some centres unmarked) [Iloprost], the half time in data set [1] is 20 to 30 min.

On to `CC#CCC(C)[C@H](O)/C=C/[C@@H]1[C@H]2c3cccc(CCCC(=O)O)c3O[C@H]2C[C@H]1O` (mixture of isomers) [Beraprost], for which the half time in data set [1] was 35 to 40 min.

`CCCCC[C@H](O)/C=C/[C@@H]1[C@H]2C/C(=C/CCCC(=O)O)O[C@H]2C[C@H]1O` [prostacyclin]: the “effect on platelet aggregation in whole blood as evaluated by MULTIPLATE” value in data set [2] is reported as “does not affect platelet aggregation”. Also, the “effect on thrombus formation as evaluated by viscoelastical haemostatic assays such as thrombelastography (TEG)” value in the data set with thrombus formation is on record as “does not impair thrombus formation”.
